According to patent US10494404B2, “Quinolinium conjugates of cyclosporin” (priority 2014, dated 2019):

What was measured:
Cylophilin D (CypD) = Cylophilin D (CypD) (Homo sapiens, UniProt P30405); assay: Cyclophilin D competitive fluorescence polarization assay; details: competitive FP assay; FP-CsA 45 nM, enzyme 40 nM; read-out: Ki for cylophilin D binding
Description: A competitive fluorescence polarization assay (FP-assay) was used.
Polarization was determined by measuring the ratios between parallel and perpendicular polarized light and calculated as described by Roehrl et al 2004.
Titration of a single probe concentration against different enzyme concentrations was used to determine the dissociation constant (Kd) (Nikolovska et al 2004). The inhibitor constant (Ki) was calculated with the equation shown below in Equation A. (Nikolovska et al 2004).
Three replicates were used for this experiment. […] DMSO % in total solution should remain lower than 1%.

[1] = system: Ca^2+ mediated PT pore formation; assay: Calcium retention capacity (CRC) assay, isolated WT mouse liver mitochondria; assay type: biochemical; details: 8 nM
From the text: In order to assess the efficiency of compounds on Ca^2+ mediated PT pore formation we measured calcium retention capacity (CRC) of isolated mouse liver mitochondria. […] Energised mitochondria take up Ca^2+, resulting in a declining fluorescent signal following the Ca^2+ bolus induced peak. Mitochondria take up and buffer Ca^2+ up to a threshold when intramitochondrial [Ca^2+] reaches threshold to induce PT. […] The amount of Ca^2+ required to induce PT characterizes its Ca^2+ sensitivity and defines mitochondrial CRC. Inhibition of CypD, the Ca^2+ sensor of PT, thus leads to increased CRC.
Further experiments were carried out using the techniques discussed in Example 4.
Subcellular fractionation was performed as previously described (Astin et al, 2013). […] At 4° C., the liver was rinsed in PBS to remove excess blood, and any fat and connective tissue was eliminated. PBS was then replaced with isolation buffer containing 1 mM PMSF, and the liver was chopped into pieces (approximately 2 mm in length). Tissue was then homogenized in this solution until no solid matter remained, and then centrifuged at 800G for 10 minutes at 4° C. The nuclear pellet was then discarded, and the post nuclear supernatant retained, and centrifuged at 10300G for another 10 minutes at 4° C. The postmitochondrial supernatant was discarded, and the mitochondrial pellet was resuspended in isolation buffer and PMSF, and kept on ice. Protein levels were quantified using a ThermoScientific BCA protein quantification assay, as per manufacturer's instructions.
Isolated mitochondria were resuspended (500 μg protein/ml) in MSK buffer (75 mM mannitol, 25 mM sucrose, 5 mM potassium phosphate monobasic, 20 mM Tris-HCl, 100 mM KCl, and 0.1% bovine serum albumin, pH 7.4) supplemented with 10 mM succinate, 1 μM rotenone and 1 μM Fluo5N. 200 μl mitochondrial suspension per well was used in 96 well microplates. Compounds were incubated for ten minutes before the plate was assayed in a Fluostar Optima plate reader, using Ex/Em filters at 480/520 […]; CaCl2 was injected approximately every 6.5 minutes for 80 minutes (12 total injections, final concentration of 75 μM). To calculate % inhibition of Ca^2+ induced pore opening, first areas under each curve were calculated, and controls without CaCl2 addition were subtracted as background. The background corrected values were then expressed as the fraction of controls without mitochondria, representing the total amount of Ca^2+ added, unbuffered by mitochondria. Percentage inhibition for each [compound] was then calculated as the % of the corresponding value for the untreated condition. […] For experiments with CypD −/− mice, 100 ul mitochondrial suspension per well was used. CaCl2) was injected approximately every 6.5 minutes for 135 minutes (20 total injections, final concentration of 266 μM). Data were background corrected and expressed as the fraction of controls without mitochondria, and then normalised to the wild type no drug condition. Significance was assessed by one way ANOVA.

HepG2 cells = assay: HepG2 high content screening of cell health markers; assay type: cell-based; details: HepG2, 72 h exposure
Description: HepG2 cells were plated on 96-well tissue culture treated black walled clear bottomed polystyrene plates, 100 μL, (3000 cells) per well. After 24 hours the cells were dosed with the test compounds at a range of concentrations. At the end of the incubation period, the cells were loaded with the relevant dye/antibody for each cell health markers set out below. The plates were then scanned using an automated fluorescent cellular imager [ArrayScan VTI (Thermo Scientific Cellomics)].
The following cell health markers were measured: • a. Cell count—a decreasing number of cells per well indicates toxicity due to necrosis, apoptosis or a reduction in cellular proliferation. • b. Nuclear area—an increase in nuclear size indicates necrosis or G2 cell cycle arrest and a decrease indicates apoptosis. • c. DNA structure—an increase in DNA structure indicates chromosomal instability and DNA fragmentation. • d. […]
HepG2 cells were seeded in black, clear-bottom 96-well tissue culture plates at a density of 3000 cells per well. […] Cell count, nuclear size and DNA structure were also measured Hoechst 33342 (Life Technologies). Following staining of the HepG2 cells fluorescence was analyzed by image acquisition with a Thermo Fisher Cellomics® ArrayScanVTI High Content Screening Reader (ThermoFisher Scientific Inc., Waltham, Mass.) and vHCS™ view software (ThermoFisher Scientific Inc.). […]

Chain of Cylophilin D (CypD) (P30405 30-207): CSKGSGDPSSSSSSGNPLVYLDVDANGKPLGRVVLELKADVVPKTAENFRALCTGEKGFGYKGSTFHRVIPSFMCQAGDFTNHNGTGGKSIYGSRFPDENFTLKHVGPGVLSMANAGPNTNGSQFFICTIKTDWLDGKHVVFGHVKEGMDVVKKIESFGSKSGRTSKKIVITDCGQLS

| Ki (Cylophilin D (CypD)) [µM] | SMILES | inhibition of Ca2+ mediated PT pore formation [1] | toxicity (cell health markers) compared with unmodified CsA (HepG2 cells) |
| --- | --- | --- | --- |
| 0.073 | C=CCC1C(=O)N(C)[C@@H](CC(C)C)C(=O)N[C@@H](C(C)C)C(=O)N(C)[C@@H](CC(C)C)C(=O)N[C@@H](C)C(=O)N[C@H](C)C(=O)N(C)[C@@H](CC(C)C)C(=O)N(C)[C@@H](CC(C)C)C(=O)N(C)[C@@H](C(C)C)C(=O)N(C)[C@@H]([C@H](O)[C@H](C)C/C=C/CCC[n+]2ccc(N(C)C)c3ccc(C(F)(F)F)cc32)C(=O)N[C@@H](CC)C(=O)N1C (stereo partly shown) [Compound 4] | retain high levels inhibition | – |
| 0.046 | C/C=C/C[C@@H](C)[C@@H](O)[C@H]1C(=O)N[C@@H](CC)C(=O)N(C)C(C/C=C/CCC[n+]2ccc(O)c3ccccc32)C(=O)N(C)[C@@H](CC(C)C)C(=O)N[C@@H](C(C)C)C(=O)N(C)[C@@H](CC(C)C)C(=O)N[C@@H](C)C(=O)N[C@H](C)C(=O)N(C)[C@@H](CC(C)C)C(=O)N(C)[C@@H](CC(C)C)C(=O)N(C)[C@@H](C(C)C)C(=O)N1C (stereo partly shown) [Compound 6, [Sar-(E)-Hexen-2-yl-6-(4-hydroxy)quinolinium]^3 CsA] | – | – |
| – | CC[C@@H]1NC(=O)[C@H]([C@H](O)[C@H](C)C/C=C/CCC(=O)Nc2ccc(NCc3ccc(F)cc3)nc2N)N(C)C(=O)[C@H](C(C)C)N(C)C(=O)[C@H](CC(C)C)N(C)C(=O)[C@H](CC(C)C)N(C)C(=O)[C@@H](C)NC(=O)[C@H](C)NC(=O)[C@H](CC(C)C)N(C)C(=O)[C@H](C(C)C)NC(=O)[C@H](CC(C)C)N(C)C(=O)CN(C)C1=O [Reference Compound 1, [Gly-(1S,2R,E)-7-(flupirtine)-1-hydroxy-2-methyloct-4-enamide]^1 CsA, reference compound] | – | A similar reduction in toxicity was not observed |
| – | CC[C@@H]1NC(=O)[C@H]([C@H](O)[C@H](C)C/C=C/CCC[n+]2ccc(N(C)C)c3ccc(C(F)(F)F)cc32)N(C)C(=O)[C@H](C(C)C)N(C)C(=O)[C@H](CC(C)C)N(C)C(=O)[C@H](CC(C)C)N(C)C(=O)[C@@H](C)NC(=O)[C@H](C)NC(=O)[C@H](CC(C)C)N(C)C(=O)[C@H](C(C)C)NC(=O)[C@H](CC(C)C)N(C)C(=O)CN(C)C1=O [Compound 3, [Gly(1S,2R,E)-10-(4-dimethylamino-7-trifluoromethylquinolinium)1-hydroxy-2-methyldec-4-enoic acid]^1 CsA] | retain high levels inhibition | – |
| 0.064 | CC[C@@H]1NC(=O)[C@H]([C@H](O)[C@H](C)C/C=C/CCC[n+]2ccc(O)c3ccccc32)N(C)C(=O)[C@H](C(C)C)N(C)C(=O)[C@H](CC(C)C)N(C)C(=O)[C@H](CC(C)C)N(C)C(=O)[C@@H](C)NC(=O)[C@H](C)NC(=O)[C@H](CC(C)C)N(C)C(=O)[C@H](C(C)C)NC(=O)[C@H](CC(C)C)N(C)C(=O)CN(C)C1=O [Compound 5, [Gly-(1S,2R,E)-8-(4-hydroxyquinolinium)-1-hydroxy-2-methyloct-4-ene]^1 CsA] | – | – |
| 0.125 | C/C=C/C[C@@H](C)[C@@H](O)[C@H]1C(=O)N[C@@H](CC)C(=O)N(C)C(C/C=C/CCC[n+]2cccc3ccccc32)C(=O)N(C)[C@@H](CC(C)C)C(=O)N[C@@H](C(C)C)C(=O)N(C)[C@@H](CC(C)C)C(=O)N[C@@H](C)C(=O)N[C@H](C)C(=O)N(C)[C@@H](CC(C)C)C(=O)N(C)[C@@H](CC(C)C)C(=O)N(C)[C@@H](C(C)C)C(=O)N1C (stereo partly shown) [Compound 2, [Sar-(E)-Hexen-2-yl 6-quinolinium]^3 CsA] | – | – |
